Results from US20040029965A1, “Formulations for reducing or eliminating toxicity of enviromental hormones containing ursodeoxycholic acid” (priority 2000, published 2004).
Marks after values point to notes of the source that are not given here.

Test system: C57B1/6J mice
Assay: Hematological changes in mice by a single subcutaneous injection of TCDD
Assay type: in vivo
Parameters: NEU / LYM / PLT: unit not given here
Protocol: Male C57B1/6J mice of 5 weeks old having the average weight of 18-22 g which had been bred in CRJ (Charles River in Japan) were purchased and used in this example as experimental animals. Those mice were acclimated under the constant breeding condition, i.e. the temperature of 24±1° C., the humidity of 60±10% and the light and darkness cycle of 12 hours, for one week and thereafter, utilized in the experiment.
2,3,7,8-tetrachlorodibenzo-p-dioxin (TCDD) dissolved in toluene (purity of 95% or more as a result of gas chromatography analysis), manufactured by Chem. Services Inc. in USA, was volatilized with nitrogen to obtain powder. The obtained powder was dissolved in a mixed solvent containing acetone and corn oil with a volume ratio of 1:6. The resulting solution each containing 110, 27.5 and 6.9 μg/kg of TCDD was subcutaneously injected to mice at a volume of 5 ml per body weight. […] The mice were supplied with the feed from 10 days before (pre-administration) to 60 days after administration of TCDD (post-administration).
Upon completion of the experiment for 60 days, the experimental animals were fasted for 24 hours and anesthetized with ether. Then, they were abdominally incised and blood was gathered from abdominal vena cava. They were sacrificed by the release of blood. Liver, kidneys, testes and epididymides were extracted and all the extracted organs were weighed. Only the testes were separately kept and observed under optical and electron microscopes. For biochemical finding test, serum was separated from blood with a centrifuge and the separated serum was analyzed with an automated blood biochemical analyzer, Dimension (Dupont, USA). Blood was put to another blood gathering bottle and then, analyzed with an automated blood cell analyzer, Celldyn (Abbott, USA).
The results are expressed as Mean±Standard Deviation values. For statistical analysis of the body weight, feed and water uptake, biochemical findings, hematological findings and the weight of organ in an acute toxicity test, verification was performed by one way analysis of variance (ANOVA) in case of equal distribution. In case significance was recognized in ANOVA, the Student's t-test was performed in the levels of p<0.05 and p<0.01.
For hematological findings, white blood cell (WBC), neutrophil (NEU), lymphocyte (LYM), monocyte (MONO), eosinophil (EOS), basophil (BASO) and red blood cell (RBC) counts, and hemoglobin concentration (HGB), hematocrit (HCT), mean cell volume (MCV), mean corpuscular hemoglobin (MCH), mean corpuscular hemoglobin concentration (MCHC), red blood cell distribution width (RDW) and platelet count (PLT) were measured and the results are as follows.

[1] = TCDD 27.5 μg/kg + UDCA 0.125 wt %
[2] = TCDD 27.5 μg/kg + UDCA 0.25 wt %
[3] = TCDD 27.5 μg/kg + UDCA 0.5 wt %

`C[C@H](CCC(=O)O)[C@H]1CC[C@H]2[C@@H]3[C@@H](O)C[C@@H]4C[C@H](O)CC[C@]4(C)[C@H]3CC[C@]12C` [UDCA, 3α, 7β-dihydroxy-5β-cholanoic acid] was tested, and the HCT (TCDD 6.9 μg/kg + UDCA 0.5 wt %) was 45.35 ± 0.93%, the HGB (TCDD 6.9 μg/kg + UDCA 0.5 wt %) was 14.47 ± 0.29 g/dL and the LYM (TCDD 6.9 μg/kg + UDCA 0.5 wt %) was 5.12 ± 1.13 10^3. The MCH (TCDD 6.9 μg/kg + UDCA 0.5 wt %) was 14.98 ± 0.19 pg, the MCHC (TCDD 6.9 μg/kg + UDCA 0.5 wt %) was 31.87 ± 0.41 g/dL and the MCV (TCDD 6.9 μg/kg + UDCA 0.5 wt %) was 47.08 ± 0.63 fL. For the same compound, the MONO (TCDD 6.9 μg/kg + UDCA 0.5 wt %) was 0.04 ± 0.03 10^3, the NEU (TCDD 6.9 μg/kg + UDCA 0.5 wt %) was 0.34 ± 0.11 10^3 and the PLT (TCDD 6.9 μg/kg + UDCA 0.5 wt %) was 1112.89 ± 76.53 10^3. The RBC (TCDD 6.9 μg/kg + UDCA 0.5 wt %) was 9.64 ± 0.26 10^6, the RDW (TCDD 6.9 μg/kg + UDCA 0.5 wt %) was 20.19 ± 0.72% and the WBC (TCDD 6.9 μg/kg + UDCA 0.5 wt %) was 5.76 ± 1.13 10^3. For the same compound, the BASO [1] was 0.09 ± 0.04 10^3, the EOS [1] was 0.002 ± 0.003 10^3 and the HCT [1] was 43.77 ± 1.37 %. For the same compound, the HGB [1] was 14.64 ± 0.67 g/dL, the LYM [1] was 2.06 ± 0.81 10^3 and the MCH [1] was 15.32 ± 0.39 pg. The MCHC [1] was 33.65 ± 1.04 g/dL, the MCV [1] was 45.51 ± 0.35 fL and the MONO [1] was 0.02 ± 0.01 10^3. The NEU [1] was 0.34 ± 0.10## 10^3, the PLT [1] was 1172.44 ± 80.58## 10^3 and the RBC [1] was 9.61 ± 0.29 10^6. For the same compound, the RDW [1] was 20.08 ± 1.20%, the WBC [1] was 3.69 ± 0.72 10^3 and the BASO [2] was 0.18 ± 0.07 10^3. For the same compound, the EOS [2] was 0.008 ± 0.007 10^3, the HCT [2] was 43.65 ± 1.24 % and the HGB [2] was 14.23 ± 0.55 g/dL. The LYM [2] was 2.99 ± 1.06## 10^3, the MCH [2] was 15.01 ± 0.44 pg and the MCHC [2] was 32.58 ± 0.73 g/dL. For the same compound, the MCV [2] was 46.09 ± 0.42 fL, the MONO [2] was 0.05 ± 0.03 10^3 and the NEU [2] was 0.48 ± 0.09## 10^3. The PLT [2] was 1069.70 ± 128.48## 10^3, the RBC [2] was 9.48 ± 0.29 10^6 and the RDW [2] was 19.99 ± 1.08%. The WBC [2] was 3.78 ± 1.19 10^3, the BASO [3] was 0.14 ± 0.07 10^3 and the EOS [3] was 0.005 ± 0.003 10^3. For the same compound, the HCT [3] was 44.49 ± 1.63 %, the HGB [3] was 14.80 ± 0.78 g/dL and the LYM [3] was 3.04 ± 0.77## 10^3. For the same compound, the MCH [3] was 15.46 ± 0.59 pg, the MCHC [3] was 33.23 ± 1.04 g/dL and the MCV [3] was 46.46 ± 0.86 fL. For the same compound, the MONO [3] was 0.05 ± 0.04 10^3, the NEU [3] was 0.59 ± 0.23## 10^3 and the PLT [3] was 1068.14 ± 84.28## 10^3. The RBC [3] was 9.57 ± 0.25 10^6, the RDW [3] was 20.44 ± 0.82% and the WBC [3] was 3.71 ± 0.99 10^3.
